According to patent publication US8486977B2, “1,2,3-triazole derivatives for use as stearoyl-CoA desaturase inhibitors” (GlaxoSmithKline LLC, priority 2007, dated 2013):

| melting point | Compound |
| --- | --- |
| 175.9 °C | COC(=O)c1ccc(NC(=O)c2nnn(Cc3ccc(Cl)c(Cl)c3)c2C)cc1OC [Example 28, Methyl 4-[({1-[(3,4-dichlorophenyl)methyl]-5-methyl-1H-1,2,3-triazol-4-yl}carbonyl)amino]-2-(methyloxy)benzoate] |
| 136.2 °C | Cc1c(C(=O)Nc2ccc(CO)cc2)nnn1Cc1cccc(Cl)c1 [Example 88, 1-[(3-Chlorophenyl)methyl]-N-[4-(hydroxymethyl)phenyl]-5-methyl-1H-1,2,3-triazole-4-carboxamide] |
| 175.6 °C | Cc1c(C(=O)Nc2ccc(O)c(CO)c2)nnn1Cc1ccc(Cl)c(Cl)c1 [Example 26, 1-[(3 4 Dichlorophenyl)methyl]-N-[4-hydroxy-3-(hydroxymethyl)phenyl]-5-methyl-1H-1,2,3-triazole-4-carboxamide] |
| 267.6 °C | Cc1c(C(=O)Nc2cccc(C(=O)O)c2)nnn1Cc1ccc(Cl)c(Cl)c1 [Example 63, 3-[({1-[(3,4-Dichlorophenyl)methyl]-5-methyl-1H-1,2,3-triazol-4-yl}carbonyl)amino]benzoic acid] |
| 116 °C | COC(=O)Cc1cccc(NC(=O)c2nnn(Cc3ccc(Cl)c(Cl)c3)c2C)c1 [Example 30, Methyl {3-[({1-[(3,4-dichlorophenyl)methyl]-5-methyl-1H-1,2,3-triazol-4-yl}carbonyl)amino]phenyl}acetate] |
| 144.9 °C | Cc1c(C(=O)Nc2cccc(OCCO)c2)nnn1Cc1ccc(Cl)c(Cl)c1 [Example 78, 1-[(3,4-Dichlorophenyl)methyl]-N-{3-[(2-hydroxyethyl)oxy]phenyl}-5-methyl-1H-1,2,3-triazole-4-carboxamide] |
| 133 °C | COC(=O)Cc1ccc(OC)c(NC(=O)c2nnn(Cc3ccc(Cl)c(Cl)c3)c2C)c1 [Example 35, Methyl [3-[({1-[(3,4-dichlorophenyl)methyl]-5-methyl-1H-1,2,3-triazol-4-yl}carbonyl)amino]-4-(methyloxy)phenyl]acetate] |
| 124 °C | Cc1c(C(=O)Nc2ccc(OCCC(C)C)cc2)nnn1Cc1ccccc1 |
| 203.9 °C | CNC(=O)c1cccc(NC(=O)c2nnn(Cc3ccc(Cl)c(Cl)c3)c2C)c1 [Example 18, 1-[(3,4-Dichlorophenyl)methyl]-5-methyl-N-{3-[(methylamino)carbonyl]phenyl}-1H-1,2,3-triazole-4-carboxamide] |
| 140 °C | Cc1c(C(=O)Nc2ccc(OCCO)cc2)nnn1Cc1ccc(Cl)c(Cl)c1 [Example 74, 1-[(3,4-Dichlorophenyl)methyl]-N-{4-[(2-hydroxyethyl)oxy]phenyl}-5-methyl-1H-1,2,3-triazole-4-carboxamide] |
| 149.1 °C | Cc1c(C(=O)Nc2ccc(CO)cc2)nnn1Cc1ccccc1 [Example 38, N-[4-(Hydroxymethyl)phenyl]-5-methyl-1-(phenylmethyl)-1H-1,2,3-triazole-4-carboxamide] |
| 307.2 °C | Cc1c(C(=O)Nc2cc(C(=O)O)cc(C(=O)O)c2)nnn1Cc1ccccc1 [Example 65, 5-({[5-Methyl-1-(phenylmethyl)-1H-1,2,3-triazol-4-yl]carbonyl}amino)-1,3-benzenedicarboxylic acid] |
| 125 °C (dec.) | Cc1c(C(=O)Nc2ccc(OCCC(C)C)cc2)nnn1Cc1ccc(-c2ccccc2Cl)cc1 [Example 9, 1-[(2’-Chloro-4-biphenylyl)methyl]-5-methyl-N-{4-[(3-methylbutyl)oxy]phenyl}-1H-1,2,3-triazole-4-carboxamide] |
| 223 to 225 °C | CNC(=O)c1cc(CO)cc(NC(=O)c2nnn(Cc3ccc(Cl)c(Cl)c3)c2C)c1 [Example 92, 1-[(3,4-Dichlorophenyl)methyl]-N-{3-(hydroxymethyl)-5-[(methylamino)carbonyl]phenyl}-5-methyl-1H-1,2,3-triazole-4-carboxamide] |
| 168.7 °C | Cc1c(C(=O)Nc2ccc(OCc3ccccc3)cc2)nnn1Cc1ccc(Br)cc1 [Example 3, 1-[(4-Bromophenyl)methyl]-5-methyl-N-{4-[(phenylmethyl)oxy]phenyl}-1H-1,2,3-triazole-4-carboxamide] |
| 180 °C | COC(=O)c1cc(NC(=O)c2nnn(Cc3ccc(Cl)c(Cl)c3)c2C)ccc1O [Example 29, Methyl 5-[({1-[(3,4-dichlorophenyl)methyl]-5-methyl-1H-1,2,3-triazol-4-yl}carbonyl)amino]-2-hydroxybenzoate] |
| 157 °C | Cc1c(CO)cccc1NC(=O)c1nnn(Cc2ccccc2)c1C [Example 39, N-[3-(Hydroxymethyl)-2-methylphenyl]-5-methyl-1-(phenylmethyl)-1H-1,2,3-triazole-4-carboxamide] |
| 139.4 °C | Cc1c(C(=O)Nc2ccc(OCc3ccccc3)cc2)nnn1Cc1ccc(F)cc1 [Example 4, 1-[(4-Fluorophenyl)methyl]-5-methyl-N-{4-[(phenylmethyl)oxy]phenyl}-1H-1,2,3-triazole-4-carboxamide] |
| 203 °C | Cc1c(C(=O)Nc2ccc(CO)c(CO)c2)nnn1Cc1ccc(Cl)c(Cl)c1 [Example 58, N-[3,4-bis(Hydroxymethyl)phenyl]-1-[(3,4-dichlorophenyl)methyl]-5-methyl-1H-1,2,3-triazole-4-carboxamide] |
| 214 °C | COc1ccc(CO)cc1NC(=O)c1nnn(Cc2cc(Cl)cc(Cl)c2)c1C [Example 57, 1-[(3,5-Dichlorophenyl)methyl]-N-[5-(hydroxymethyl)-2-(methyloxy)phenyl]-5-methyl-1H-1,2,3-triazole-4-carboxamide] |

| melting point | Compound |
| --- | --- |
| 243.9 °C | COc1ccc(C(=O)O)cc1NC(=O)c1nnn(Cc2ccc(Cl)c(Cl)c2)c1C [Example 64, 3-[({1-[(3,4-Dichlorophenyl)methyl]-5-methyl-1H-1,2,3-triazol-4-yl}carbonyl)amino]-4-(methyloxy)benzoic acid] |
| 175.5 °C | Cc1c(C(=O)Nc2ccc(CO)c(CO)c2)nnn1Cc1ccc(F)cc1 [Example 83, N-[3,4-bis(Hydroxymethyl)phenyl]-1-[(4-fluorophenyl)methyl]-5-methyl-1H-1,2,3-triazole-4-carboxamide] |
| 148.2 °C | Cc1c(C(=O)Nc2cc(CO)cc(CO)c2)nnn1Cc1ccccc1 [Example 60, N-[3,5-bis(Hydroxymethyl)phenyl]-5-methyl-1-(phenylmethyl)-1H-1,2,3-triazole-4-carboxamide] |
| 134.3 °C | Cc1c(C(=O)Nc2ccc(CO)cc2)nnn1Cc1cccc(F)c1 [Example 91, 1-[(3-Fluorophenyl)methyl]-N-[4-(hydroxymethyl)phenyl]-5-methyl-1H-1,2,3-triazole-4-carboxamide] |
| 114 °C | Cc1c(C(=O)Nc2ccc(OCCC(C)C)cc2)nnn1Cc1ccc(F)cc1 |
| 105.8 °C | Cc1c(C(=O)Nc2cccc(CO)c2)nnn1Cc1ccccc1 [Example 37, N-[3-(Hydroxymethyl)phenyl]-5-methyl-1-(phenylmethyl)-1H-1,2,3-triazole-4-carboxamide] |
| 194.5 °C | Cc1c(C(=O)Nc2cc(CO)cc(CO)c2)nnn1Cc1ccc(Cl)c(Cl)c1 [Example 52, N-[3,5-bis(Hydroxymethyl)phenyl]-1-[(3,4-dichlorophenyl)methyl]-5-methyl-1H-1,2,3-triazole-4-carboxamide] |
| 148 °C | COC(=O)c1ccc(NC(=O)c2nnn(Cc3ccc(Cl)c(Cl)c3)c2C)cc1C(=O)OC [Example 46, Dimethyl 4-[({1-[(3,4-dichlorophenyl)methyl]-5-methyl-1H-1,2,3-triazol-4-yl}carbonyl)amino]-1,2-benzenedicarboxylate] |
| 203.4 °C | CC(=O)Nc1cccc(NC(=O)c2nnn(Cc3ccc(Cl)c(Cl)c3)c2C)c1 [Example 21, N-[3-(Acetylamino)phenyl]-1-[(3,4-dichlorophenyl)methyl]-5-methyl-1H-1,2,3-triazole-4-carboxamide] |
| 105 °C | Cc1ccc(Cn2nnc(C(=O)Nc3ccc(OCCC(C)C)cc3)c2C)cc1 |
| 151.9 °C | Cc1c(C(=O)Nc2cccc(CO)c2)nnn1Cc1cccc(Cl)c1 [Example 86, 1-[(3-Chlorophenyl)methyl]-N-[3-(hydroxymethyl)phenyl]-5-methyl-1H-1,2,3-triazole-4-carboxamide] |
| > 70 °C | CC(=O)OCc1cccc(NC(=O)c2nnn(Cc3ccc(Cl)c(Cl)c3)c2C)c1 [Example 70, {3-[({1-[(3,4-Dichlorophenyl)methyl]-5-methyl-1H-1,2,3-triazol-4-yl}carbonyl)amino]phenyl}methyl acetate] |
| 142 °C | Cc1c(C(=O)Nc2cccc(CCO)c2)nnn1Cc1ccc(Cl)c(Cl)c1 [Example 62, 1-[(3,4-Dichlorophenyl)methyl]-N-[3-(2-hydroxyethyl)phenyl]-5-methyl-1H-1,2,3-triazole-4-carboxamide] |
| 171.4 °C | Cc1c(C(=O)Nc2ccc(CO)c(CO)c2)nnn1Cc1ccccc1 [Example 80, N-[3,4-bis(Hydroxymethyl)phenyl]-5-methyl-1-(phenylmethyl)-1H-1,2,3-triazole-4-carboxamide] |
| 137 °C | Cc1c(C(=O)Nc2ccc(OCCC(C)C)cc2)nnn1Cc1ccc(Br)cc1 |
| 160 °C | Cc1c(NC(=O)c2ccc(CO)cc2)nnn1Cc1ccc(Cl)c(Cl)c1 [Example 93, N-{1-[(3,4-Dichlorophenyl)methyl]-5-methyl-1H-1,2,3-triazol-4-yl}-4-(hydroxymethyl)benzamide] |
| 157 °C | Cc1c(C(=O)Nc2ccc(CO)c(CO)c2)nnn1Cc1cccc(Cl)c1 [Example 82, N-[3,4-bis(Hydroxymethyl)phenyl]-1-[(3-chlorophenyl)methyl]-5-methyl-1H-1,2,3-triazole-4-carboxamide] |
| 210.5 °C | Cc1c(C(=O)Nc2cc(CO)ccc2F)nnn1Cc1ccc(Cl)c(Cl)c1 [Example 55, 1-[(3,4-Dichlorophenyl)methyl]-N-[2-fluoro-5-(hydroxymethyl)phenyl]-5-methyl-1H-1,2,3-triazole-4-carboxamide] |
| 197.8 °C | COc1ccc(NC(=O)c2cn(Cc3ccc(F)cc3)nn2)cc1OC |
| 220 °C | Cc1c(C(=O)Nc2cc(CO)ccc2Cl)nnn1Cc1ccc(Cl)c(Cl)c1 [Example 56, N-[2-Chloro-5-(hydroxymethyl)phenyl]-1-[(3,4-dichlorophenyl)methyl]-5-methyl-1H-1,2,3-triazole-4-carboxamide] |
